Experimental data reported in patent US20100331297A1, “MODULATION OF PROTEIN TRAFFICKING” (FOLDRX PHARMACEUTICALS, INC., priority 2007, published 2010).

Key:
Format in all cases: cell-based
ypt1^ts cells = experiment: Rescue of growth of ypt1^ts mutant yeast (OD600); conditions: Saccharomyces cerevisiae, read-out: Ypt1-ts MRC (Minimum Rescue Concentration), ypt1^ts cells, 35° C. and 37° C., OD600; multiple results separated by a comma
Procedure, shortened: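 Log-phase ypt1^ts cells (N121I/A161V) in SC 2% glucose were diluted to OD600 0.003 and treated with compound at 50 μM-0.05 μM final in 1% DMSO. Cultures were incubated at 35° C. (read at 24 and 40 h) or 37° C. (read at 40 h), with rescue measured as OD600 growth and reported as minimum rescue concentration.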

ΔF508 CFTR [1] = biological target: T1, ΔF508 CFTR (Homo sapiens, UniProt P13569, DEL508-508); experiment: Stabilization of ΔF508 CFTR in CFBE cells (western blot, densitometry); conditions: 16 hours at 37° C., 1.25-10 μM (compound 25), 1-10 μM (compound 5)
Text: In addition, efficacy of a compound can be evaluated before (first in time), concomitantly or subsequently to the above-mentioned test modalities by monitoring, e.g., (i) modulation (e.g., an improvement) of the stability of a trafficking defective protein, (ii) modulation (e.g., an improvement) of proper, physiological trafficking of the trafficking defective protein, or (iii) modulation (e.g., a restoration) in one or more functions of a trafficking defective protein. For example, in some cases, proteins (e.g., protein mutants such as ΔF508 CFTR) are prematurely degraded. Thus, the efficacy of a given compound to modulate protein trafficking can be determined by monitoring the stability of a protein in the presence as compared to the absence of the compound. For example, cells expressing a trafficking defective protein (e.g., expressing endogenously or expressing an exogenous transgene encoding a trafficking defective protein such as ΔF508 CFTR) can be cultured in the presence or absence of a compound for at least 1 hour (e.g., at least 2 hours, at least 4 hours, at least 6 hours, at least 8 hours, at least 12 hours, at least 16 hours, at least 24 hours, at least 36 hours, or at least 48 hours). Cell lysates can be prepared from the different populations of cells, suspended in Laemmli buffer (with or without reducing agent) and subjected to sodium dodecyl sulfate-polyacrylamide gel electrophoresis (SDS-PAGE). Using antibodies that specifically recognize the trafficking defective protein (e.g., CFTR), the amount of the protein in the presence as compared to in the absence of a compound can be determined by western or dot-blotting techniques. […] Where a modified state (e.g., glycosylation or phosphorylation) of a protein is indicative of increased stability, a change in the modified state of a protein can also be used to determine if a compound stabilizes the trafficking defective protein. For example, the amount of glycosylated CFTR (e.g., ΔF508 CFTR) can be assessed in the presence as compared to the absence of a compound.
The compounds can be tested for their ability to stabilize ΔF508 CTFR. CFBE cells, a cell line generated by transformation of cystic fibrosis tracheo-bronchial cells (ΔF508 CTFR homozygous) with SV40 (Bruscia et al. (2002) Gene Ther. 9(11):683-685), can be cultured with 10 μM of the selected compounds, or 10 μM VRT-325 for 16 hours at 37° C. (VRT-325 is described in, e.g., Van Goor et al. (2006) Am. J. Physiol. Lung Cell Mol. Physiol. 290:L1117-L1130). A population of cells can also be cultured with the dimethyl sulfoxide (DMSO) solvent as a control.
Following incubation, cells were lysed, solubilized in Laemmli buffer, and subjected to SDS-PAGE. CFTR protein were visualized by western blotting using an antibody specific for CFTR. Culturing CFBE cells with compound 25 (see Table I for structure) increased the amount of cellular ΔF508 CFTR protein.
The effect of different concentrations of compound 25 on ΔF508 CFTR was tested in a dose response experiment. […] The relative amounts of glysosylated and unglycosylated ΔF508 CFTR protein were visualized by western blotting (FIG. 10A), and the band intensities wer quantitated by scanning and densitometry (FIG. 10B). […] The relative amounts of glysosylated and unglycosylated ΔF508 CFTR protein were visualized by western blotting (FIG. 11A), and the band intensities wer quantitated by scanning and densitometry (FIG. 11B).

ΔF508 CFTR [2] = biological target: T1, ΔF508 CFTR; experiment: Corrector activity, YFP halide (iodide) quenching assay in FRT cells expressing ΔF508 CFTR; parameters: expressed in transfected cells; host or cells: Fischer rat thyroid (FRT) cells; conditions: FRT cells ΔF508 CFTR/YFP, 24 hours with compound at 37° C., forskolin and genistein; read-out: Corrector EC50
Procedure, shortened: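 FRT cells co-expressing ΔF508 CFTR and halide-sensitive YFP were incubated 24 h at 37° C with compounds, then stimulated 30 min at 37° C in PBS with forskolin and genistein. Endpoint fluorescence after iodide injection was normalized to initial reading; EC50 from 4-parameter fit with bottom constrained to DMSO control.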

TS217 cells = experiment: Rescue of cell viability from α-synuclein-induced cytotoxicity (cellular ATP, […]); conditions: tetracycline 5 days, 3 μM concentration, P<0.02
Description: Treatment of TS217 cells with 0.1 μg/mL tetracycline for three to six days induces expression of α-synuclein, which can be cytotoxic. […] After the five day treatment, cells were lysed and assayed for intracellular ATP concentration as a function of cell viability. The relative viability of the cells was assessed by measuring the cellular ATP level in cell lysates using a […]® Plus Bioassay kit (Cambrex, Rockland, Me.). Relative cell viability was calculated as the ratio of induced cells to control cells (cells not treated with tetracycline), as an indication of α-synuclein-induced cytotoxicity. […] By contrast, cells treated with compound 90 at 3 μM concentration reduced the α-synuclein-induced cytotoxicity by 45% (P<0.02) as compared to the control wells lacking the compound. Thus, compound 90 rescues cell viability from α-synuclein-induced cytotoxicity.

ΔF508 CFTR [3] = biological target: T1, ΔF508 CFTR; experiment: Potentiator activity, YFP halide (iodide) quenching assay in FRT cells expressing ΔF508 CFTR, 27° C. pre-incubation; parameters: expressed in transfected cells; host or cells: Fischer rat thyroid (FRT) cells; conditions: FRT cells ΔF508 CFTR/YFP, 24 hours at 27° C., compound with forskolin 30 min
Procedure, shortened: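 FRT cells stably co-expressing ΔF508 CFTR and halide-sensitive YFP, grown 24 h at 37° C. then 24 h at 27° C. to raise surface CFTR. Compounds in PBS with forskolin, 30 min at 37° C.; iodide injected and YFP quenching (ex 485/em 530 nm) followed. EC50 from normalized endpoint fluorescence.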

T1 sequence (P13569 with tags, fused parts or gaps DEL508-508): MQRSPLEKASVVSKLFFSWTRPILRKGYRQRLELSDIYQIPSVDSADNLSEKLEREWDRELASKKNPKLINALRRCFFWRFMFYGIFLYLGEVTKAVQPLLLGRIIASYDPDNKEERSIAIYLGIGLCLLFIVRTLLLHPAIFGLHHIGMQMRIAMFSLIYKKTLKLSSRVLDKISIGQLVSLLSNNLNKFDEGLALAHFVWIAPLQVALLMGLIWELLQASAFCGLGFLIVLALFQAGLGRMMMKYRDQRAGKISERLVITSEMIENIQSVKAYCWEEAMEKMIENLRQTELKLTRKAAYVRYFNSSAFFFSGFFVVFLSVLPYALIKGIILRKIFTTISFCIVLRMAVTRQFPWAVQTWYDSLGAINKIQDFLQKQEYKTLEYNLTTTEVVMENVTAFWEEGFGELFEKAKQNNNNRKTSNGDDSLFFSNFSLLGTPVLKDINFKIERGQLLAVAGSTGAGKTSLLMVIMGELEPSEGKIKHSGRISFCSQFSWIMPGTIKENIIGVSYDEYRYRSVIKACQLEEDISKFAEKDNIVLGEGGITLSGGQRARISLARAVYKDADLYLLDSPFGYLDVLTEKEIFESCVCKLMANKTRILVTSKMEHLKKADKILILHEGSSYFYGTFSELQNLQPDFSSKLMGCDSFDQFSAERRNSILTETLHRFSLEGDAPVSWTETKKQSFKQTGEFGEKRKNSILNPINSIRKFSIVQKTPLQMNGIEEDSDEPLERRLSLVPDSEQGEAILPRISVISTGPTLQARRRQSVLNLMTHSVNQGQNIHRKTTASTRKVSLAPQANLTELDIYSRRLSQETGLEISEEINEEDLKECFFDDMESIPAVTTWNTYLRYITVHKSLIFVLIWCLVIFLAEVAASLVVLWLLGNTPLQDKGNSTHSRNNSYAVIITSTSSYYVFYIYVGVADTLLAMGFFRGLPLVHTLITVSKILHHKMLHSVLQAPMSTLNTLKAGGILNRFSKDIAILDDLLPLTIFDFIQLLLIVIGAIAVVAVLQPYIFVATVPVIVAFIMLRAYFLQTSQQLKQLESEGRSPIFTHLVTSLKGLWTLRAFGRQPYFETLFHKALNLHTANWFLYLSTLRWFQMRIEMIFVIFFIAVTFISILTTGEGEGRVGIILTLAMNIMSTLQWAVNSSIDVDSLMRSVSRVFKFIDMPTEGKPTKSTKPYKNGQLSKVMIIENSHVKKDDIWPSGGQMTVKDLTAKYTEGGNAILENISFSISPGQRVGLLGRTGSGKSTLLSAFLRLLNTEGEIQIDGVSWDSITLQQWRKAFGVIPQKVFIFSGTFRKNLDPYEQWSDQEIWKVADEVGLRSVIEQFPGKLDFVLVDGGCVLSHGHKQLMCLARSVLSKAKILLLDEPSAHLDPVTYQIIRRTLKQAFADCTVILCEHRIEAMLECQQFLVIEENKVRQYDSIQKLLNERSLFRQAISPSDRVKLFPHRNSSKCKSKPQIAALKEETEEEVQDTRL

SMILES | minimal effective concentration (ypt1^ts cells) [µM] | glycosylated (Band B) ΔF508 CFTR protein vs absence of compound, dose response (ΔF508 CFTR [1]) | EC50 (ΔF508 CFTR [2]) [µM] | reduction of α-synuclein-induced cytotoxicity compared to control wells (TS217 cells) [%] | EC50 (ΔF508 CFTR [3]) [µM]
CC(C)(C)n1nc(Cc2cccc3ccccc23)c2c(N)ncnc21 [compound 5] | < 10 | increased | > 15 | – | –
CC(C)(C)n1nc(Oc2ccccc2)c2c(N)ncnc21 [compound 90, 1-tert-Butyl-3-phenoxy-1H-pyrazolo[3,4-d]pyrimidin-4-ylamine] | > 50 | – | > 15 | 45 | < 2
